Data reported in ChEMBL document CHEMBL4043274, “4-Hydroxy-2-pyridones: Discovery and evaluation of a novel class of antibacterial agents targeting DNA synthesis” (Bioorg Med Chem Lett, 2017).
In brackets after ≈: the same amount, converted by molar mass. Activity calls are given as the source filed them. The rule behind the calls is not given here.

Assays:
[1] = test system: Escherichia coli; test: Antibacterial activity against wild-type Escherichia coli ATCC 25922 by CLSI M100-S17 protocol based method; format: functional
[2] = test system: Escherichia coli; test: Antibacterial activity against Escherichia coli BAS849 by CLSI M100-S17 protocol based method; format: functional
[3] = test system: Escherichia coli; test: Antibacterial activity against wild-type Escherichia coli ATCC 25922 in presence of human serum albumin by CLSI M100-S17 protocol based method; format: functional
[4] = test system: Acinetobacter baumannii; test: Antibacterial activity against Acinetobacter baumannii ATCC BAA-747 by CLSI M100-S17 protocol based method; format: functional
[5] = test system: Klebsiella pneumoniae; test: Antibacterial activity against Klebsiella pneumoniae ATCC 35657 by CLSI M100-S17 protocol based method; format: functional
[6] = test system: Escherichia coli; test: Antibacterial activity against quinolone resistant Escherichia coli SKM18 by CLSI M100-S17 protocol based method; format: functional
[7] = Selectivity ratio of MIC for quinolone resistant Escherichia coli SKM18 to MIC for wild-type Escherichia coli ATCC 25922; format: functional
[8] = test system: Escherichia coli; test: Ratio of MIC in presence to absence of HSA for wild-type Escherichia coli ATCC 25922; format: functional
[9] = test system: Staphylococcus aureus; test: Antibacterial activity against wild-type Staphylococcus aureus ATCC 29213 by CLSI M100-S17 protocol based method; format: functional
[10] = Selectivity ratio of MIC for wild-type Escherichia coli ATCC 25922 to MIC for Escherichia coli BAS849; format: functional
[11] = test system: Staphylococcus aureus; test: Inhibition of DNA synthesis in wild-type Staphylococcus aureus ATCC 29213 at MIC; format: functional
[12] = test system: Staphylococcus aureus; test: Inhibition of protein synthesis in wild-type Staphylococcus aureus ATCC 29213 at 1.6 ug/ml; format: functional
[13] = test system: Escherichia coli ATCC 25922; test: Inhibition of Escherichia coli ATCC 25922 topoisomerase-4 ParC at 100 uM using kinetoplast DNA as substrate after 60 mins relative to control
[14] = Inhibition of DNA gyrase-A in Escherichia coli ATCC 25922 using relaxed pBR322 DNA as substrate after 30 mins by ethidium bromide staining based agarose gel electrophoresis method

Compound	MIC [1] [µg/mL]	MIC [2] [µg/mL]	MIC [3] [µg/mL]	MIC [6] [µg/mL]	Ratio [8]	other results
CCc1c(-c2ccc(N3CCC(N(C)C)C3)cc2)[nH]c(=O)c(C(=O)O)c1O (stereo not given)	0.78 (≈ 2.1 µM)	0.19 (≈ 0.512 µM)	3.1	3.1 (≈ 8.35 µM)	<4	MIC [4]: 1.6 µg/mL (≈ 4.31 µM); MIC [5]: 1.6 µg/mL (≈ 4.31 µM); Selectivity ratio [7]: < 4
CCc1c(-c2ccc(N(C)C)cc2)n(Cc2ccccc2)c(=O)c2c(O)cc(=O)oc12	> 12.5					MIC [9]: 3.1 µg/mL (≈ 7.44 µM)
CCc1c(-c2ccc(N(C)C)cc2)[nH]c(=O)c(C(=O)O)c1OC	> 12.5	12.5 (≈ 39.5 µM)				
CCc1c(-c2ccc(N(C)C)cc2OC)[nH]c(=O)c(C(=O)O)c1O	> 12.5	6.3 (≈ 19 µM)				
CCc1c(-c2ccc(N3CCCCC3)cc2)[nH]c(=O)c(C(=O)O)c1O	> 62.5	0.39 (≈ 1.14 µM)			>30	Selectivity ratio [10]: > 50
CCc1c(-c2ccc(N3CCCC3)cc2)[nH]c(=O)c(C(=O)O)c1O	1.6 (≈ 4.87 µM)	0.03 (≈ 0.0914 µM)	> 62.5	> 62.5	>30 - 40	Selectivity ratio [10]: > 50
CCc1c(-c2ccc(N3CCC(C4(N)CCC4)C3)cc2)[nH]c(=O)c(C(=O)O)c1O (stereo not given)	1.6 (≈ 4.03 µM)	0.39 (≈ 0.981 µM)	12.5	0.19 (≈ 0.478 µM)	4 - 8	MIC [4]: 3.1 µg/mL (≈ 7.8 µM); MIC [5]: 1.6 µg/mL (≈ 4.03 µM)
CCc1c(O)c(C(=O)O)c(=O)n(Cc2ccccc2)c1-c1ccc(N(C)C)cc1	> 12.5					MIC [9]: 1.6 µg/mL (≈ 4.08 µM); inhibition [11]: Active; inhibition [12]: Active
CCc1c(-c2ccc(N3CC(N)C4(CC4)C3)cc2)[nH]c(=O)c(C(=O)O)c1O (stereo not given)	3.1 (≈ 8.39 µM)	0.78 (≈ 2.11 µM)		6.3 (≈ 17.1 µM)		
CCc1c(-c2ccc(N(C)C)cc2)[nH]c(=O)c(C(=O)O)c1O	0.78 to 0.8 (≈ 2.58 to 2.65 µM)	0.03 (≈ 0.0992 µM)	> 25	15.6 (≈ 51.6 µM)		inhibition [13]: 30%; MIC [9]: 3.1 µg/mL (≈ 10.3 µM); IC50 [14]: 11 µM; inhibition [11]: Active; MIC [4]: 6.3 µg/mL (≈ 20.8 µM); MIC [5]: 3.9 µg/mL (≈ 12.9 µM)
CCc1c(-c2ccc(C)cc2)[nH]c(=O)c(C(=O)O)c1O	> 12.5	0.78 (≈ 2.85 µM)				
